Patent US20240374618A1, “COMPOSITION OF TANNIC ACID AND VITAMIN D AND METHODS OF USE” (Nulastin, Inc., priority 2021, published 2024)

Key:
human dermal fibroblasts = assay: Immunodetection of elastin in cultured human dermal fibroblasts; type: cell-based; details: for elastin concentration: FIGS. 1A-1C
Procedure: Biological effects of tannic acid in the presence of hyaluronic acid or ferulic acid were tested on dermal fibroblasts derived from punch biopsies of healthy skin. All fibroblasts were isolated by allowing migration out of skin explants and passaged by trypsinization. Fibroblasts were maintained in alpha-minimum essential medium supplemented with 20 mM HEPES, 1% antibiotics and antimycotics, 1% L-Glutamate and 2% fetal bovine serum (FBS). Cells were plated (50×10^5 cells/dish) to reach confluency and were cultured for 7 days in the presence or absence of hyaluronic acid (0.1%), ferulic acid (5 μg/mL), tannic acid (2 μg/mL), or a combination thereof.
Cell cultures prepared according to Example 1 maintained in the presence or absence of tannic acid, hyaluronic acid, or ferulic acid were fixed in cold 100% methanol at […] for detection of elastin or in 4% paraformaldehyde at room temperature for detection of collagen I. The multiple parallel cultures were incubated with […] of polyclonal antibody to tropoelastin (Elastin Products, Owensville, MI), or polyclonal antibody to collagen type I (Chemicon, Temecula, CA). Cultures were incubated with the respective fluorescein-conjugated goat anti-rabbit, goat anti-mouse, or rabbit anti-goat secondary antibodies. Nuclei were counter stained with propidium iodide (Sigma, St. Louis, MO). All cultures were examined with a Nikon Eclipse E1000 microscope attached to a cooled CCD camera (QImaging, Retiga EX) and analyzed with the computer-generated morphometric analysis system, in which the Image-Pro Plus software (Media Cybernetics, Silver Springs, MD) estimates the proportion of areas marked with green fluorescence, in relation to the entire (1 square mm) analyzed field.
Cultured human dermal fibroblasts were grown in the presence or absence of tannic acid at low concentration (2 μg/mL) and high concentration (20 μg/mL). Immunodetection of elastin was performed as described in Example 2.
(§1) Cultured human dermal fibroblasts were grown in the presence of or absence of vitamin D (10^−7 M), tannic acid ([…]), or a combination of vitamin D and tannic acid (2 μg/mL) (FIGS. 2A-2B and FIGS. 3A-3C). Immunodetection of elastin was performed as described above.
Cultured human dermal fibroblasts were grown in the presence of or absence hyaluronic acid (0.1%), tannic acid (2 μg/mL), or a combination of hyaluronic acid (0.1%) and tannic acid (2 μg/mL). Immunodetection of elastin was performed as described above.
Cultured human dermal fibroblasts were grown in the presence or absence of ferulic acid (5 μg/mL), tannic acid (2 μg/mL), or a combination of ferulic acid (5 μg/mL) and tannic acid (2 μg/mL). Immunodetection of elastin and collagen I was performed as described above. Results are shown in FIGS. 5A-5C, and FIGS. 6A-6B for elastin and FIGS. 7A-7C and FIG. 8 for collagen.
Cultured human dermal fibroblasts were grown in the presence or absence of ferulic acid (20 μM), tannic acid (2 μg/mL), or copper sulfate (2 μM). Fibroblasts were also grown in presence of a combination of ferulic acid (20 μM) and copper sulfate (2 μM), a combination of ferulic acid (20 μM) and tannic acid (2 μg/mL), and a combination of tannic acid (2 μg/mL) and copper sulfate (2 μM). Immunodetection of elastin was performed as described above.

fibroblast cultures = assay: Amount of tropoelastin in fibroblast cultures measured using PCR; type: cell-based, human; details: tannic acid added to cultures that contained vitamin D3; PCR after 18 hours; FIG. 2A
Procedure: FIG. 2A depicts the amount of tropoelastin in fibroblast cultures measured using PCR after 18 hours.
as §1

## hyaluronic acid
Human dermal fibroblasts; hyaluronic acid (0.1%) alone
  elastin production: inhibition of elastin production

## O=C(OC[C@H]1O[C@@H](OC(=O)c2cc(O)c(O)c(OC(=O)c3cc(O)c(O)c(O)c3)c2)[C@H](OC(=O)c2cc(O)c(O)c(OC(=O)c3cc(O)c(O)c(O)c3)c2)[C@@H](OC(=O)c2cc(O)c(O)c(OC(=O)c3cc(O)c(O)c(O)c3)c2)[C@@H]1OC(=O)c1cc(O)c(O)c(OC(=O)c2cc(O)c(O)c(O)c2)c1)c1cc(O)c(O)c(OC(=O)c2cc(O)c(O)c(O)c2)c1 [tannic acid]
Fibroblast cultures
  amount of tropoelastin: increased the amount of tropoelastin
Human dermal fibroblasts; tannic acid (2 μg/mL) added to hyaluronic acid (0.1%)
  net deposition of elastin: improvement in net deposition of elastin
Human dermal fibroblasts; tannic acid (2 μg/mL) added to vitamin D (10^−7 M)
  net deposition of elastin: improvement in net deposition of elastin
Human dermal fibroblasts; tannic acid (2 μg/mL) in the presence of ferulic acid (5 μg/mL)
  production of elastin: improved production of elastin even in the presence of ferulic acid
Human dermal fibroblasts; tannic acid at high concentration (20 μg/mL)
  elastin concentration: caused elastosis
Human dermal fibroblasts; tannic acid at low concentration (2 μg/mL)
  elastin concentration: improved elastin concentration

## vitamin D
Human dermal fibroblasts; vitamin D (10^−7 M) alone
  elastin production: inhibition of elastin production
